# Read-outs that look alike come from different tables or passages of the source.
# Key:
# 9L [1] = assay type: cell-based; settings: Rattus norvegicus, read-out: LD90 (the source's name)
# U87 = assay type: cell-based; settings: Homo sapiens, U-87 MG; continuous 6-8 days exposure; read-out: LD90 (the source's name)
# Protocol: (§1) Cell culture. Tumor sensitivity to paclitaxel was measured by the clonogenic assay described by Rosenblum, et al., Cancer 41:2305-2314 (1978) and Salcman, et al., Neurosurgery 29:526-531 (1991) with rat glioma (9L, F98), human glioma (H80, U87, U373), and human medulloblastoma (D324) cell lines. Cells were grown and propagated in minimum essential medium (MEM) supplemented with 10% fetal bovine serum, L-glutamine, penicillin, and streptomycin and incubated at 37° C. in an atmosphere containing 5% CO2. At the start of each assay, 600 tumor cells in 2 ml of medium were plated on Falcon 6-well tissue-culture plates (Becton-Dickenson, Lincoln Park, N.J.). After incubating for 24 h, the medium was removed from the places and replaced with 2 ml of medium containing paclitaxel and 0.1% dimethylsulfoxide (DMSO). The treatment solutions were prepared as described by Roytta et al., Prostate 11:95-106 (1987). The paclitaxel treatment solution was then either replaced with fresh paclitaxel-free media containing 0.1% DMSO after 1 or 24 h or was left on the places for the 6- to 8-day incubation period. […] The colonies on each plate were counted and the result was expressed as a percentage of the colonies formed on control plates not exposed to paclitaxel. […] Graphs were prepared and analyzed using Cricket Graph v. […]
# H80 = assay type: cell-based; settings: Homo sapiens; continuous 6-8 days exposure; read-out: LD90 (the source's name)
# Protocol: as §1
# [2] = in vivo; cited from earlier work
# [3] = tested on: 9L, F98, U373, H80, U87, D324 cell lines; test: In vitro efficacy of paclitaxel on several cell lines (clonogenic assay); assay type: cell-based, rat and human
# U373 = test: cells; settings: Homo sapiens, U373 MG, read-out: ID90
# [4] = maintenance of sufficient systemic levels; cited from earlier work
# F98 = assay type: cell-based; settings: Rattus norvegicus, continuous 6-8 days exposure, read-out: LD90 (the source's name)
# 9L [5] = test: Intracranial local drug delivery by polymer implant in rat glioma model, median survival (Table 1 summary); settings: in vivo
compound,measurement,setting,value
CC(=O)O[C@H]1C(=O)[C@@]2(C)[C@H]([C@H](OC(=O)c3ccccc3)[C@]3(O)C[C@H](OC(=O)[C@H](O)[C@@H](NC(=O)c4ccccc4)c4ccccc4)C(C)=C1C3(C)C)[C@]1(OC(C)=O)CO[C@@H]1C[C@@H]2O [paclitaxel],IC90,"9L [1]; 1 h, 1 h exposure",890 nM
same,IC90,"9L [1]; 24 h, 24 h exposure",100 nM
same,IC90,U87,9.1 nM
same,IC90,H80,19 nM
same,penetration of intact blood-brain barrier,[2],"penetrates the intact blood-brain barrier poorly, if at all"
same,factor of potency increase in vitro,[3]; exposure for more than 24 h,two to four
same,concentration at which log cell kill occurred,[3]; rat and human brain-tumor cell lines,nanomolecular concentrations
same,amount required for log cell kill in rat lines relative to human lines,"[3]; rat lines (9L, F98) vs human lines (U87, U373, H80), 6-8 days",four to ten
same,IC90,U373; 1 h,280 nM
same,IC90,U373; 24 h,29 nM
same,IC90,U373,7.2 nM
same,systemic toxicity,[4],"severe, in some cases ""life-threatening"" toxicity"
same,IC90,F98,25 nM
same,% increase survival,9L [5],215%
same,"Median survival in days, Rx group",9L [5],61.5

# Reference: patent publication USRE37410E, “Controlled local delivery of chemotherapeutic agents for treating solid tumors” (priority 1999, dated 2001)
